{
  "source": "patent US20060088897A1",
  "about": "“Modulators” (priority 2003, published 2006)",
  "assay_type_in_all_cases": "cell-based",
  "key": {"N1E-115 cells [1]": {"tested_on": "N1E-115 cells", "assay": "Cell guidance assay at Laminin/CSPG boundary (axonal guidance)", "experimental": "Effect of PAK peptides on neurite morphology. Cells are exposed to control peptide, αP 1*, αP2, βP2, or γP2 and neurite morphology assessed. (B) Cells are plated on coverslips that been treated to create a Laminin/CSGP boundary. After 6 h cells are examined for their ability to project neurites that crossed the substrate boundary. Cells exposed to bioporter coated peptides, (a) αP2, (b) βP2, and (c) γP2. […] Results are means+/−SEM (n=161-263). (C) Cells are exposed to peptides and after 6 h are scored for their ability to cross boundary from Laminin to CSPG.\nThe coverslips are washed and sterilised and then coated in one of the following ways.\nA second layer of laminin is applied as a drop mixed with 1 μg/ml TRITC label. Coverslips are left for 1 hour at RT and then rinsed twice with sterile water before allowing to dry before use. (iii) Attractive/repulsive boundary. Slides are coated with CSPG 5 μg/ml for 1 hour at 37° C. in a humid chamber then rinsed once in sterile H2O and allowed to air dry before the drop of laminin at 10 μg/ml is applied to the centre of the coverslip and left for 1 hour at RT before rinsing twice in sterile water and allowing to dry before use. This coating is also done in reverse with the laminin applied first and then the tenascin or the CSPG applied second.\nThe cells are then seeded onto the prepared coverslips at 2×10^5 cells in 1 ml in a 35 mm petri dish, in DMEM, 10% FCS, and 1% AB/AM. Cells are allowed to attach overnight. The media is then removed and the coverslips rinsed in serum free media and incubated overnight (18 h) in serum free media. After the starvation the cells are fixed and stained to show the morphology of the cells at the boundary. Only neurites expressing neurofilamant are scored.\nAfter 5 minutes, the cells are washed once with serum free DMEM media and then 1 ml of serum free DMEM is added to the tube containing the peptide and BioPorter mix it is vortexed gently before being added to the cells. The cells are incubated for 4 hours at 37° C. After the 4 hour incubation the cells are then incubated for a further 2 hours in 5% FCS DMEM or for cells undergoing a substrate guidance assay the 2 hour incubation is in serum free DMEM. The cells are fixed and stained.\nNeurofilament positive neurites are scored for how they respond to Laminin/CSPG boundary. […] However, neurites do have distinct morphologies (FIG. 9A). Thus α, β and γ PAK are not essential for neurite outgrowth."}, "N1E-115 cells [2]": {"tested_on": "N1E-115 cells", "assay": "Peptide delivery with BioPorter reagent, scoring of neurites, filopodia and lamellipodia/ruffles", "experimental": "(§1) Cells are starved for 2-3 h and then either injected with peptides (10 μg/ml) or exposed to peptides with bioporter reagent. Cells are incubated for a further 2 h before being stained with phalloiden and examined by confocal microscopy (as described in the materials and methods section). (A) The upper cells is injected with αP1 (a), or all cells injected with αP1*(b), or exposed to αP2 with bioporter reagent (c). […] Results are expressed as means+/−SEM of 3 experiments (n=333-426 cells). […] (D) Cells are exposed to bioporter reagent with αP2 and after 6 h double stained with αPAK and vinculin antibodies; (a) Vinculin/αPAK, (b) Vinculin and (c) αPAK. Bar=10 μM. Control bars are with IgG with bioporter/microinjection.\n(§2) Cells are starved for 2-3 h and then injected with peptides. Cells are then incubated for 2 h before being stained with phalloiden and examined by confocal microscopy (as described in the materials and methods section). (A) Cells are injected with IgG (a), with αP2 (b), with βP2 (c) and γP2 (d). Bar=10 μM. (B) Cells are exposed to bioporter with peptides and presence of neurites, pronounced filopodia and pronounced lamellipodia/ruffles scored (definitions as in FIG. 7). (C) Cells are either exposed to bioporter reagent coated peptides (αP2 and βP2) and then IGF or serum starvation used to activate cells. For γP2 cells are injected with peptide and stimulated with serum. Filopodia and lamellipodia are scored by using time-lapse phase contrast microscopy. +/−SEM of 3 experiments (n=900). Control peptide is taken from the kinase domain and common to the three PAK isoforms.\nBioPorter regent is supplied as a dried powder and must be dissolved in a solvent before use. To each tube of BioPorter reagent 250 μl of methanol is added and the powder is re-suspended by vortexing for 10-20 seconds. 10 μl of the mix is transferred into new eppendorf tubes; the methanol is allowed to evaporate for 2 hours in a laminar flow hood. The dried reagent is stored at −20° C.\nCells are plated out at 1.5×10^5 cells in a 35 mm dish containing 2 laminin-coated coverslips and incubated overnight. […]"}, "N1E-115 cells [3]": {"tested_on": "N1E-115 cells", "assay": "Microinjection of peptides into partially serum starved N1E-115 cells, phalloidin staining and confocal microscopy of cell morphology", "conditions": "FIG. 8A", "experimental": "as §1, §2\nCells are plated out at 1.0×10^5 cells in 1 ml in a 35 mm dish containing 2 laminin coated coverslips. The coverslips are first marked with a grid using a fine permanent marker and then coated with laminin and incubated overnight in DMEM, 10% FCS, 1% AB/AM. The media is replaced with serum free media (DMEM, 1% AB/AM) and the cells starved for 1 hour so that they flattened and are easier to inject. The peptides are injected at 10 μg/ml in PBS, Rat IgG at 1 mg/ml is added to act as a marker for injected cells.\nThe cells are injected using an Eppendorf microinjection apparatus on an Axioplan inverted microscope equipped with a heated stage maintained at 37° C. and a 5% CO2 chamber. Humidity is maintained by a dish of sterile water inside the CO2 chamber. Cells in a grid square are injected and positive injection checked visually at the time of injection or after fixation and staining for the injected marker. After injection the cells are returned to the incubator for a further 2 hours. Giving a total time without serum of 4 hours.\nThe only difference between these two peptides being that the latter peptide is phosphorylated on serine and this modification prevents it from binding Nck (Zhao et al., 1998). To investigate the effects of peptides we first serum starve the cells for 2-4 h to activate Cdc42Hs and Rac."}, "N1E-115 cells [4]": {"tested_on": "N1E-115 cells", "assay": "Double staining of peptide treated cells with vinculin and αPAK antibodies (focal complexes)", "conditions": "FIG. 7D", "experimental": "as §1\nFor in situ analysis primary/secondary antibodies are used at 1:100 dilution. PAK antibodies, all from Santa-Cruz, are as follows; αPAK N-20 (raised to rat amino acids 2-21), αPAK C-19 (raised to rat amino acids 525-544), βPAK (raised to mouse amino acids 2-20), γPAK (raised to human amino acids 2-20) and γPAK (raised to human amino acids 2-20). Vinculin, paxillin, phosphotyrosine are from Sigma. Integrin antibodies β1-integrin and α6-integrin a gift from A. Sonneberg, NCI, Netherlands. Bac1 cells are seeded onto coverslips and then grown for 24 h before the media is replaced with either CSF free, serum free, or CSF/serum free. […]"}, "N1E-115 cells [5]": {"tested_on": "N1E-115 cells", "assay": "Axonal guidance towards IGF (preliminary experiments)", "conditions": "unpublished data", "source_text": "In preliminary experiments we have also examined the effect of the PAK peptides on axonal guidance towards IGF in N1E-115 cells."}},
  "data": [
    {"sequence": "SNNGLDIQDKPPAPPMRNTS [αP2]", "values": [
      {"measurement": "ability to detect the Laminin/CSPG boundary", "setting": "N1E-115 cells [1]; FIG. 9C", "result": "not affected"},
      {"measurement": "neurite morphology", "setting": "N1E-115 cells [1]; serum starved cells, FIG. 9A", "result": "indistinguishable from control cells"},
      {"measurement": "neurite phenotype compared with αP1", "setting": "N1E-115 cells [2]; FIG. 7B", "result": "neurites that are thinner and longer"},
      {"measurement": "percentage of cells possessing neurites compared with αP1", "setting": "N1E-115 cells [2]; FIG. 7B", "result": "higher"},
      {"measurement": "optimal peptide concentration for the phenotypic changes", "setting": "N1E-115 cells [2]; dosage dependent effect, FIG. 7C", "result": 10, "unit": "µg/mL"},
      {"measurement": "effect on formation of lamellipodia, filopodia or neurites concluded from microinjection", "setting": "N1E-115 cells [3]", "result": "synergise with both Cdc42 and Rac to produce neurites"},
      {"measurement": "αPAK containing focal complexes (FC's) after peptide treatment", "setting": "N1E-115 cells [4]", "result": "leads to loss of FC's"},
      {"measurement": "effect on axonal guidance towards IGF", "setting": "N1E-115 cells [5]", "result": "do not affect guidance"}
    ]}
  ]
}
